Measurements taken from the supplement of paper PMC11061612.

Columns and labels:
Experiment in all cases: combination Emax (second highest fraction inhibited in the dose matrix, 72 h); higher = more inhibition; extreme values may be limits of the assay
[1] = tested on: MOLT-4 (T-Lymphoblastic Leukemia)
Method in brief: (§1)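 Cell lines in DMEM/F12 or RPMI with 10% FBS were plated in 1536-well plates, held 24 hours at 37°C, 5% CO2, then given two-drug dose matrices for 72 hours (DMSO typically 0.2%). Viability was read by CellTiter-Glo 2.0 luminescence and scaled as inhibition from 0 (vehicle wells) to 1 (blank wells). Combination Emax is the second-highest inhibition in the matrix; Bliss excess is observed combination effect minus expected EA + EB − EA·EB, EA and EB being single-agent effects.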

[2] = tested on: ME-180 (Cervical Carcinoma)
Method in brief: as §1

[3] = tested on: Ca-Ski (Cervical Carcinoma)
Method in brief: as §1

[4] = tested on: NCI-H522 (Lung Adenocarcinoma)
Method in brief: as §1

[5] = tested on: ML-2 (Acute Myeloid Leukemia)
Method in brief: as §1

[6] = tested on: SK-LU-1 (Lung Adenocarcinoma)
Method in brief: as §1

COLO-679 (Melanoma) = tested on: COLO-679 (Melanoma)
Method in brief: as §1

[7] = tested on: NCI-H1993 (Lung Adenocarcinoma)
Method in brief: as §1

[8] = tested on: KGN (Other Solid Carcinomas)
Method in brief: as §1

[9] = tested on: MV-4-11 (Acute Myeloid Leukemia)
Method in brief: as §1

[10] = tested on: MDA-MB-453 (Breast Carcinoma)
Method in brief: as §1

[11] = tested on: A4-Fuk (B-Lymphoblastic Leukemia)
Method in brief: as §1

[12] = tested on: OE33 (Esophageal Adenocarcinoma)
Method in brief: as §1

Row | SMILES | combination Emax [1] | combination Emax [2] | combination Emax [3] | combination Emax [4] | combination Emax [5] | combination Emax [6] | combination Emax (COLO-679 (Melanoma)) | combination Emax [7] | combination Emax [8] | combination Emax [9] | combination Emax [10] | combination Emax [11] | combination Emax [12]
1 | O=C(c1cc(Cc2n[nH]c(=O)c3ccccc23)ccc1F)N1CCN(C(=O)C2CC2)CC1 [Olaparib] + CN(CC[C@H](CSC1=CC=CC=C1)NC2=C(C=C(C=C2)S(=O)(=O)NC(=O)C3=CC=C(C=C3)N4CCC(CC4)[C@H](C5=CC=CC=C5C6=CC=C(C=C6)Cl)O)S(=O)(=O)C(F)(F)F)CCO [AZD4320] (first compound max 10 µM, 7x7, partner max 1 µM) | 0.977 | 0.18 | 0.26 | 0.0607 | 0.979 | 0.48 | 0.0175 | 0.595 | 0.298 | 1 | 0.224 | 0.0633 | 0.105
2 | C[C@@H]1COCCN1c1cc(C2([S@](C)(=N)=O)CC2)nc(-c2ccnc3[nH]ccc23)n1 [AZD6738] + Nc1ccn([C@@H]2O[C@H](CO)[C@@H](O)C2(F)F)c(=O)n1 [Gemcitabine] (first compound max 10 µM, 7x7, partner max 0.3 µM) | 1 | 0.913 | 0.883 | 0.912 | 1 | 0.415 | 0.82 | 0.939 | 0.969 | 1 | 0.678 | 0.962 | 0.752
3 | C[C@@H](Nc1cc(F)cc(F)c1)c1cc(C(=O)N(C)C)cc2c(=O)cc(N3CCOCC3)oc12 [AZD8186] + C1CN(CCC1(C(=O)N[C@@H](CCO)C2=CC=C(C=C2)Cl)N)C3=NC=NC4=C3C=CN4 [AZD5363] (first compound max 10 µM, 7x7, partner max 10 µM) | 0.437 | 0.579 | 0.463 | 0.0756 | 0.558 | 0.303 | 0.273 | 0.636 | 0.556 | 0.731 | 0.573 | 0.76 | 0.332
4 | C[C@@H]1COCCN1c1cc(C2([S@](C)(=N)=O)CC2)nc(-c2ccnc3[nH]ccc23)n1 [AZD6738] + C1CC(C1)(C(=O)[O-])C(=O)[O-].N.N.[Pt+2] [Carboplatin] (first compound max 10 µM, 7x7, partner max 10 µM) | 0.984 | 0.663 | 0.649 | 0.194 | 0.916 | 0.497 | 0.625 | 0.547 | 0.79 | 0.974 | 0.66 | 0.823 | 0.771
5 | Cc1c2c(nn1C)CSCc1cc(n(C)n1)CSc1cc(c3ccccc3c1)OCCCc1c(C(=O)O)n(C)c3c-2c(Cl)ccc13 [AZD5991] + Nc1ccn([C@@H]2O[C@H](CO)[C@@H](O)C2(F)F)c(=O)n1 [Gemcitabine] (first compound max 1 µM, 7x7, partner max 0.3 µM) | 0.992 | 0.754 | 0.757 | 0.784 | 1 | 0.19 | 0.782 | 0.902 | 0.9 | 1 | 0.731 | 1 | 0.543
6 | C[C@@H](Oc1cc(-c2cnn(C3CCNCC3)c2)cnc1N)c1c(Cl)ccc(F)c1Cl [Crizotinib] + CC1=C(C(=CC=C1)Cl)NC(=O)C2=CN=C(S2)NC3=CC(=NC(=N3)C)N4CCN(CC4)CCO [Dasatinib] (first compound max 10 µM, 7x7, partner max 2 µM) | 0.826 | 0.644 | 0.942 | 0.339 | 0.969 | 0.479 | 0.297 | 0.811 | 0.978 | 0.985 | 0.214 | 0.922 | 0.853
7 | O=C(c1cc(Cc2n[nH]c(=O)c3ccccc23)ccc1F)N1CCN(C(=O)C2CC2)CC1 [Olaparib] + Cc1c2c(nn1C)CSCc1cc(n(C)n1)CSc1cc(c3ccccc3c1)OCCCc1c(C(=O)O)n(C)c3c-2c(Cl)ccc13 [AZD5991] (first compound max 10 µM, 7x7, partner max 1 µM) | 0.878 | 0.1 | 0.146 | 0.479 | 1 | 0.216 | 0.119 | 0.124 | 0.162 | 1 | 0.341 | 1 | 0.0347
